Where two headings read alike, the source gives them in different places.
Legend:
[1] = target: T1, AEA-DA lipid probe targets in Neuro2a cells (Mus musculus, UniProt Q8R2Y8)
T1 sequence (Q8R2Y8 1-181): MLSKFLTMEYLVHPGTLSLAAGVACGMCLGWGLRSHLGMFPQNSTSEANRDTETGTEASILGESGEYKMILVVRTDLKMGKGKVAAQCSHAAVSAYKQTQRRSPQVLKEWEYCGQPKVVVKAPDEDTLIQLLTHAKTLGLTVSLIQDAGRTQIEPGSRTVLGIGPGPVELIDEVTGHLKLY

[2] = target: T2, AEA-DA lipid probe targets in Neuro2a cells (Mus musculus, UniProt Q8K2C9)
T2 sequence (Q8K2C9 1-362): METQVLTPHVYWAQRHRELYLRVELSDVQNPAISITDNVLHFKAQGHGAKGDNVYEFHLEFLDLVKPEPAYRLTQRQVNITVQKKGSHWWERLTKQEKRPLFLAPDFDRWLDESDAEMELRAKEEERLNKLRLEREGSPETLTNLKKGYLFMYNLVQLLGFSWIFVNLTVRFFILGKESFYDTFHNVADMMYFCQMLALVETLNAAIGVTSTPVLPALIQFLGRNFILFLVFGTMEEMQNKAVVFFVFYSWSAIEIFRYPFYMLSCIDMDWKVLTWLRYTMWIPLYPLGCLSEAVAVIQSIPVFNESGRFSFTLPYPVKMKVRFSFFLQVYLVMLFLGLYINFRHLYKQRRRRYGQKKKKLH

[3] = target: T3, AEA-DA lipid probe targets in Neuro2a cells (Mus musculus, UniProt Q61009)
T3 sequence (Q61009 1-509): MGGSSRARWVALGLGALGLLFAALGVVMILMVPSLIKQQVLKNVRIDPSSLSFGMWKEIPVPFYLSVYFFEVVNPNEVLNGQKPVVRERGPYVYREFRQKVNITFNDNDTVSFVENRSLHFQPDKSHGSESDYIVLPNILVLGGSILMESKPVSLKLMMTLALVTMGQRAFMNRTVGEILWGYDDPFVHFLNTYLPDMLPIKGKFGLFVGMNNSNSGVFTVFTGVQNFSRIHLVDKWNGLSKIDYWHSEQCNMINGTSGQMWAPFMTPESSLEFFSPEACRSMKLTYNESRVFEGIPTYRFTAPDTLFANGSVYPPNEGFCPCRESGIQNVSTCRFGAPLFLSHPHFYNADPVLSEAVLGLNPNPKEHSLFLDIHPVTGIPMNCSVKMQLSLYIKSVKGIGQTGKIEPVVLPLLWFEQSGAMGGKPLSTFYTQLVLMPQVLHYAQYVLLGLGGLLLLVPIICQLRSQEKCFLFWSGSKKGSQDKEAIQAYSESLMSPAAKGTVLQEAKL

[4] = target: T4, AEA-DA lipid probe targets in Neuro2a cells (Mus musculus, UniProt Q9D1D4)
T4 sequence (Q9D1D4 32-219): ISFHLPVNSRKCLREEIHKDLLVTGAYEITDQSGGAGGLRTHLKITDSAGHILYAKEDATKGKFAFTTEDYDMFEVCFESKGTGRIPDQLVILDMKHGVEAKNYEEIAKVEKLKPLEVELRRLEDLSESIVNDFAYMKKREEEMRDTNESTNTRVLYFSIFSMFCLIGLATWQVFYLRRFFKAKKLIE

[5] = target: T5, AEA-DA lipid probe targets in Neuro2a cells (Mus musculus, UniProt Q6PD26)
T5 sequence (Q6PD26 1-555): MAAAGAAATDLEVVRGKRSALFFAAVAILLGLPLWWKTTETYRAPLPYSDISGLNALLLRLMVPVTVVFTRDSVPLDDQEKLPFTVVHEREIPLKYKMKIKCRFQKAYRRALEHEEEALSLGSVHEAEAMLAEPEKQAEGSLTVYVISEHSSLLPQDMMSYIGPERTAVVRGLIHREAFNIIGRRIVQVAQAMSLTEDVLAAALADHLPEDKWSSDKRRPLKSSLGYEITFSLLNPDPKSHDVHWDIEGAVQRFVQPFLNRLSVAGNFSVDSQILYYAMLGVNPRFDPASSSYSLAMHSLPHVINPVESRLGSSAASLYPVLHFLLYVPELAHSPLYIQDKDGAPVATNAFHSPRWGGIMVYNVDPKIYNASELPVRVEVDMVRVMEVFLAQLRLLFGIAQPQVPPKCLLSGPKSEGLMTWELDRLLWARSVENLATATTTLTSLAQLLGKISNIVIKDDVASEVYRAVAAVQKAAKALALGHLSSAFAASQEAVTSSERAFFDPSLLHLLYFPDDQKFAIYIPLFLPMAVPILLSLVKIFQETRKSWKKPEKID

[6] = target: T6, AEA-DA lipid probe targets in Neuro2a cells (Mus musculus, UniProt P52825)
T6 sequence (P52825 26-658): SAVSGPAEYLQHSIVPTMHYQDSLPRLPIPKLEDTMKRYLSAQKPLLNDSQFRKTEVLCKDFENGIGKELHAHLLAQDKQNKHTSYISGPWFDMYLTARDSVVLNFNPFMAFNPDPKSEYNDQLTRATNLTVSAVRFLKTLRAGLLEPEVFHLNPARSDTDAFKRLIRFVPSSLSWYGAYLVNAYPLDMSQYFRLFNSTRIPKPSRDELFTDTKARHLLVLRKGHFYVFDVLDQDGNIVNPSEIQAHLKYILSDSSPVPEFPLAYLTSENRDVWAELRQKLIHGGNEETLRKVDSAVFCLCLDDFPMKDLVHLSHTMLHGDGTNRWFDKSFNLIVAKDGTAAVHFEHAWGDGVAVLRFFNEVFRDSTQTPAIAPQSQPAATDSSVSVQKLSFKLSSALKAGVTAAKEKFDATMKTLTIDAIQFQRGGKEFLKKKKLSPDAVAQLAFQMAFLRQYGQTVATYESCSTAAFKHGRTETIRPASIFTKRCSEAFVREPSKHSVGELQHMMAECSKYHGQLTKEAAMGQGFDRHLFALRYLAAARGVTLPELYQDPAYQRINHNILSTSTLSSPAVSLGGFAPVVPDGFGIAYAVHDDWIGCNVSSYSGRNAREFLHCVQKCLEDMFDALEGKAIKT

Compound | SILAC ratio Ptrh2 ([1]; competitor 25 μM) | SILAC ratio ptplad1 ([2]; competitor 25 μM) | SILAC ratio, Scarb1 ([3]; competitor 25 μM) | SILAC ratio, Tmed10 ([4]; competitor 25 μM) | SILAC ratio Pigs ([5]; competitor 25 μM) | SILAC ratio, Cpt2 ([6]; competitor 25 μM) | other results
CCCCC/C=C\C/C=C\C/C=C\C/C=C\CCCC(=O)NCCO [AEA, anandamide, reference compound] |  |  |  |  |  |  | SILAC ratio Ptrh2 ([1]; competitor 200 μM): 1.5; SILAC ratio ptplad1 ([2]; competitor 200 μM): 1.8; SILAC ratio, Scarb1 ([3]; competitor 200 μM): 1.6; SILAC ratio, Tmed10 ([4]; competitor 200 μM): 1.5; SILAC ratio Pigs ([5]; competitor 200 μM): 1.6; SILAC ratio, Cpt2 ([6]; competitor 200 μM): 1.1
O=C(/C=C/c1cccnc1)NCCCCC1CCN(C(=O)c2ccccc2)CC1 [FK-866, reference compound] | 1.0 | 1.2 | 2.3 | 1.1 | 1.3 | 3.1 | 
CN1CCN(C(=O)c2c(-c3ccccc3)c3cc([N+](=O)[O-])ccc3n2C)CC1 [KML110, (1-Methyl-5-nitro-3-phenyl-1H-indol-2-yl)(4-methylpiperazin-1-yl)methanone] | 1.0 | 1.7 | 2.8 | 1.2 | 1.2 | 1.5 | 
CN1CCN(C(=O)c2[nH]c3ccc([N+](=O)[O-])cc3c2-c2ccccc2)CC1 [MJN228, (4-Methylpiperazin-1-yl)(5-nitro-3-phenyl-1H-indol-2-yl)methanone] | 1.0 | 1.7 | 2.0 | 1.4 | 1.6 | 1.7 | SILAC ratio Ptrh2 ([1]; competitor 10 μM): 1.1; SILAC ratio Ptrh2 ([1]; competitor 50 μM): 1.2; SILAC ratio Ptrh2 ([1]; competitor 100 μM): 1.1; SILAC ratio ptplad1 ([2]; competitor 10 μM): 1.3; SILAC ratio ptplad1 ([2]; competitor 50 μM): 1.9; SILAC ratio ptplad1 ([2]; competitor 100 μM): 2.3; SILAC ratio, Scarb1 ([3]; competitor 10 μM): 1.6; SILAC ratio, Scarb1 ([3]; competitor 50 μM): 3.2; SILAC ratio, Scarb1 ([3]; competitor 100 μM): 4.9; SILAC ratio, Tmed10 ([4]; competitor 10 μM): 1.1; SILAC ratio, Tmed10 ([4]; competitor 50 μM): 1.5; SILAC ratio, Tmed10 ([4]; competitor 100 μM): 1.6; SILAC ratio Pigs ([5]; competitor 10 μM): 1.3; SILAC ratio Pigs ([5]; competitor 50 μM): 1.7; SILAC ratio Pigs ([5]; competitor 100 μM): 2.0; SILAC ratio, Cpt2 ([6]; competitor 10 μM): 1.3; SILAC ratio, Cpt2 ([6]; competitor 50 μM): 2.7; SILAC ratio, Cpt2 ([6]; competitor 100 μM): 5.5
C=CCN(C)CCCCCCOc1ccc(C(=O)c2ccc(Br)cc2)c(F)c1 [Ro 48-8071, reference compound] | 0.9 | 1.4 | 2.9 | 1.0 | 1.1 | 2.1 | 
